Reference: paper PMC12058161, “The plant matrix of Artemisia annua L. for the treatment of malaria: Pharmacodynamic and pharmacokinetic studies” (PLOS One, 2025)
Several values for one entry are separate records, joined by “and”; a condition that tells them apart may be missing. Equal entries are not always repeated. Where two headings read alike, the source gives them in different places.

Columns and labels:
[1] = male, Sprague Dawley, rat, in vivo
Experimental: (§3) Blood samples were centrifuged at 3500 rpm for 5 min at 4°C. All plasma samples were then stored at -80°C until analysis.
(§4) All samples were stored in a refrigerator at -80°C and thawed at room temperature before processing. A 50 μL aliquot of plasma was added with 5 μL of the standard solution (or acetonitrile) and 100 μL of internal standard solution in turn, vortexed and mixed, then sonicated for 3 min, centrifuged at 14000 rpm for 10 min at low temperature. The supernatant was transferred to an autosampler vial and analyzed by UHPLC-ESI-MS/MS.
(§5) The mobile phase consisted of 0.1% formic acid solution (A) and acetonitrile (B).
(§6) The ESI ionization source was used and detected in MRM mode.
(§7) All data were presented as mean ± SD. Pharmacokinetic parameters including half-life (t1/2), maximum plasma time (Tmax) and concentration (Cmax), area under concentration-time curve (AUC0-t and AUC0-∞), clearance (CL), steady-state volume of distribution (Vz), and mean residence time (MRT) were analyzed by non-compartmental method using DAS Version 2.0 (Chinese Pharmacological Society, Beijing, China). […] The data were analyzed by Student’s t-test for two groups and one-way analysis of variance for multiple groups; p < 0.05 was considered statistically significant.

[2] = Stability of the five compounds in SD rat plasma (QC samples, UHPLC-ESI-MS/MS); assay type: in vitro ADME; conditions: for 3 freeze-thaw cycles mean ± SD / 7 days at -80°C mean ± SD / Room temperature 24h mean ± SD: SD rat plasma QC sample; for stability, Accuracy (measured versus nominal concentration) / stability, mean ± SD (measured concentration): SD rat plasma, n=5
[3] = system: Caco-2 cells; experiment: Cytotoxicity in Caco-2 cells, CCK-8 assay; assay type: cell-based, human; conditions: for Cell survival rate%: mean; for cck-8 mean (survival fraction): mean of 6
Summary of the method: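 Caco-2 cells, pre-grown 48 h, were exposed to compounds for 48 h at 37 °C with 0.05% v/v DMSO final. Viability was measured by CCK-8 (2 h, absorbance 450 nm) relative to negative-control cells.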

[4] = system: Plasmodium berghei (P. berghei); experiment: Peters' four-day inhibition method, P. berghei murine malaria model; assay type: in vivo, ICR mice; conditions: individual mice
Experimental: (§1) In vivo evaluation of antimalarial activity was performed using the classical Peters’ four-day inhibition method. A murine malaria model was constructed by intraperitoneal injection of 5.00 × 10^7 Plasmodium yoelii (P. yoelii)- or Plasmodium berghei (P. berghei)-infected erythrocytes. […] Mice were gavaged once 4 hours after infection with medicated soybean oil or the test drug (gavage standard was 0.20 mL/10 g), and the drug was administered orally for 4 consecutive days. Four hours after the last dose, blood was collected from the tail tip of the mice to make a thin blood smear. The smear was air-dried, fixed in methanol, stained with Giemsa for 30 minutes, then rinsed with distilled water, air-dried at room temperature, and visualized for malaria infection under a microscope (OLYMPUS BX43) at 100x oil immersion. The inhibition ratio (%) for each group was calculated using the following equations:
(§2) Inhibitionratio(%)=(infectionratiocontrolgroup−infectionratiotreatmentgroup)/infectionratiocontrolgroup×100

[5] = Pharmacokinetic study in rats after oral administration (UHPLC-ESI-MS/MS of plasma); conditions: for half-life: male, Sprague Dawley, rat, in vivo, po
Experimental: as §3, §4, §5, §6, §7

[6] = in vivo; conditions: male, Sprague Dawley, rat, po; for MRT last: MRT(0-t); for MRT inf: MRT(0-∞)
Experimental: as §3, §4, §5, §6, §7

[7] = system: Plasmodium yoelii (P. yoelii); experiment: Peters' four-day inhibition method, P. yoelii murine malaria model; assay type: in vivo, ICR mice; conditions: individual mice
Experimental: as §1, §2

[8] = nominal 40 ng/mL, 3 freeze-thaw cycles
[9] = nominal 40 ng/mL, 7 days at -80°C
[10] = nominal 1000 ng/mL, 3 freeze-thaw cycles
[11] = nominal 1000 ng/mL, 7 days at -80°C
[12] = nominal 5000 ng/mL, 3 freeze-thaw cycles
[13] = nominal 5000 ng/mL, 7 days at -80°C
[14] = nominal 40 ng/mL, Room temperature 24h
[15] = nominal 1000 ng/mL, Room temperature 24h
[16] = nominal 5000 ng/mL, Room temperature 24h
[17] = Caco-2, concentration 10 μmol/L
[18] = Caco-2, concentration 20 μmol/L
[19] = Caco-2, concentration 40 μmol/L
[20] = Caco-2, concentration 80 μmol/L

C[C@@H]1CC[C@H]2[C@@H](C)C(=O)O[C@@H]3O[C@@]4(C)CC[C@@H]1[C@]32OO4 [ART, Artemisinin, reference compound]
plasma concentration (plasma concentration-time curve) ([1]; 0.08 h): 180.137
plasma concentration (plasma concentration-time curve) ([1]; 0.5 h): 247.263
plasma concentration (plasma concentration-time curve) ([1]; 1 h): 173.84
plasma concentration (plasma concentration-time curve) ([1]; 1.5 h): 81.963
plasma concentration (plasma concentration-time curve) ([1]; 2 h): 51.011
plasma concentration (plasma concentration-time curve) ([1]; 3 h): 33.992
plasma concentration (plasma concentration-time curve) ([1]; 4 h): 27.897
Vz ([1]; po, 100 mg/kg): 0.08 ± 0.03 L
CL ([1]; po, 352 mg/kg): 0.032 ± 0.018 L/h
Vz ([1]; po, 352 mg/kg): 0.061 ± 0.008 L
Stability in plasma, measured concentration (mean ± SD) ([2]; 3 freeze-thaw cycles, QC concentration 40 ng/mL): 38.5 ± 2.35 ng/mL
Stability in plasma, measured concentration (mean ± SD) ([2]; 3 freeze-thaw cycles, QC concentration 1000 ng/mL): 1053 ± 29.9 ng/mL
Stability in plasma, measured concentration (mean ± SD) ([2]; 3 freeze-thaw cycles, QC concentration 5000 ng/mL): 4629 ± 113 ng/mL
Stability in plasma, measured concentration (mean ± SD) ([2]; 7 days at -80°C, QC concentration 40 ng/mL): 40.3 ± 0.80 ng/mL
Stability in plasma, measured concentration (mean ± SD) ([2]; 7 days at -80°C, QC concentration 1000 ng/mL): 1051 ± 29.5 ng/mL
Stability in plasma, measured concentration (mean ± SD) ([2]; 7 days at -80°C, QC concentration 5000 ng/mL): 4673 ± 65.9 ng/mL
Stability, measured concentration, mean ± SD ([2]; QC sample 40 ng/mL, 3 freeze-thaw cycles): 38.5 ± 2.35 ng/mL
Stability, measured concentration, mean ± SD ([2]; QC sample 40 ng/mL, 7 days at -80°C): 40.3 ± 0.80 ng/mL
Stability, measured concentration, mean ± SD ([2]; QC sample 40 ng/mL, Room temperature 24h): 41.1 ± 1.49 ng/mL
Stability, measured concentration, mean ± SD ([2]; QC sample 1000 ng/mL, 3 freeze-thaw cycles): 1053 ± 29.9 ng/mL
Stability, measured concentration, mean ± SD ([2]; QC sample 1000 ng/mL, 7 days at -80°C): 1051 ± 29.5 ng/mL
Stability, measured concentration, mean ± SD ([2]; QC sample 1000 ng/mL, Room temperature 24h): 1070 ± 40.9 ng/mL
Stability, measured concentration, mean ± SD ([2]; QC sample 5000 ng/mL, 3 freeze-thaw cycles): 4629 ± 113 ng/mL
Stability, measured concentration, mean ± SD ([2]; QC sample 5000 ng/mL, 7 days at -80°C): 4673 ± 65.9 ng/mL
Stability, measured concentration, mean ± SD ([2]; QC sample 5000 ng/mL, Room temperature 24h): 5229 ± 418 ng/mL
Stability in plasma, measured concentration (mean ± SD) ([2]; Room temperature 24h, QC concentration 40 ng/mL): 41.1 ± 1.49 ng/mL
Stability in plasma, measured concentration (mean ± SD) ([2]; Room temperature 24h, QC concentration 1000 ng/mL): 1070 ± 40.9 ng/mL
Stability in plasma, measured concentration (mean ± SD) ([2]; Room temperature 24h, QC concentration 5000 ng/mL): 5229 ± 418 ng/mL
3 freeze-thaw cycles mean ± SD [2, 8]: 38.5 ± 2.35 ng/mL
7 days at -80°C mean ± SD [2, 9]: 40.3 ± 0.80 ng/mL
Room temperature 24h mean ± SD ([2]; nominal 40 ng/mL): 41.1 ± 1.49 ng/mL
3 freeze-thaw cycles mean ± SD [2, 10]: 1053 ± 29.9 ng/mL
7 days at -80°C mean ± SD [2, 11]: 1051 ± 29.5 ng/mL
Room temperature 24h mean ± SD ([2]; nominal 1000 ng/mL): 1070 ± 40.9 ng/mL
3 freeze-thaw cycles mean ± SD [2, 12]: 4629 ± 113 ng/mL
7 days at -80°C mean ± SD [2, 13]: 4673 ± 65.9 ng/mL
Room temperature 24h mean ± SD ([2]; nominal 5000 ng/mL): 5229 ± 418 ng/mL
stability, Accuracy (measured versus nominal concentration) [2, 8]: 96.14%
stability, mean ± SD (measured concentration) [2, 8]: 38.5 ± 2.35 ng/mL and 38.46 ng/mL
stability, Accuracy (measured versus nominal concentration) [2, 9]: 100.80%
stability, mean ± SD (measured concentration) [2, 9]: 40.3 ± 0.80 ng/mL and 40.32 ng/mL
stability, Accuracy (measured versus nominal concentration) [2, 14]: 102.70%
stability, mean ± SD (measured concentration) [2, 14]: 41.1 ± 1.49 ng/mL and 41.08 ng/mL
stability, Accuracy (measured versus nominal concentration) [2, 10]: 105.28%
stability, mean ± SD (measured concentration) [2, 10]: 1053 ± 29.9 ng/mL and 1052.79 ng/mL
stability, Accuracy (measured versus nominal concentration) [2, 11]: 105.14%
stability, mean ± SD (measured concentration) [2, 11]: 1051 ± 29.5 ng/mL and 1051.42 ng/mL
stability, Accuracy (measured versus nominal concentration) [2, 15]: 106.95%
stability, mean ± SD (measured concentration) [2, 15]: 1070 ± 40.9 ng/mL and 1069.53 ng/mL
stability, Accuracy (measured versus nominal concentration) [2, 12]: 92.59%
stability, mean ± SD (measured concentration) [2, 12]: 4629 ± 113 ng/mL and 4629.47 ng/mL
stability, Accuracy (measured versus nominal concentration) [2, 13]: 93.45%
stability, mean ± SD (measured concentration) [2, 13]: 4673 ± 65.9 ng/mL and 4672.51 ng/mL
stability, Accuracy (measured versus nominal concentration) [2, 16]: 104.57%
stability, mean ± SD (measured concentration) [2, 16]: 5229 ± 418 ng/mL and 5228.53 ng/mL
Cell survival rate%, single replicate ([3]; Caco-2, 5μmol/L): 82.52% and 83.77% and 87.9% and 78.48% and 85.79% and 77.82%
Cell survival rate%, single replicate ([3]; Caco-2, 10μmol/L): 91.57% and 89.14% and 82.1% and 68.6% and 78.83% and 84.29%
Cell survival rate%, single replicate ([3]; Caco-2, 20μmol/L): 80.46% and 80.92% and 80.32% and 81.46% and 82.88% and 85.89%
Cell survival rate%, single replicate ([3]; Caco-2, 40μmol/L): 70.44% and 87.86% and 77.89% and 75.6% and 92.55% and 87.29%
Cell survival rate%, single replicate ([3]; Caco-2, 80μmol/L): 82.12% and 82.82% and 84.32% and 77.9% and 76.8% and 84.01%
cck-8 cell survival as fraction, single replicate ([3]; Caco-2, concentration 5 μmol/L): 0.8252 and 0.8377 and 0.879 and 0.7848 and 0.8579 and 0.7782
Cell survival rate% ([3]; Caco-2, concentration 5 μmol/L): 82.71%
cck-8 mean (survival fraction) ([3]; Caco-2, concentration 5 μmol/L): 0.827
cck-8 cell survival as fraction, single replicate [3, 17]: 0.9157 and 0.8914 and 0.821 and 0.686 and 0.7883 and 0.8429
Cell survival rate% [3, 17]: 82.42%
cck-8 mean (survival fraction) [3, 17]: 0.824
cck-8 cell survival as fraction, single replicate [3, 18]: 0.8046 and 0.8092 and 0.8032 and 0.8146 and 0.8288 and 0.8589
Cell survival rate% [3, 18]: 81.99%
cck-8 mean (survival fraction) [3, 18]: 0.820
cck-8 cell survival as fraction, single replicate [3, 19]: 0.7044 and 0.8786 and 0.7789 and 0.756 and 0.9255 and 0.8729
Cell survival rate% [3, 19]: 81.94%
cck-8 mean (survival fraction) [3, 19]: 0.819
cck-8 cell survival as fraction, single replicate [3, 20]: 0.8212 and 0.8282 and 0.8432 and 0.779 and 0.768 and 0.8401
Cell survival rate% [3, 20]: 81.33%
cck-8 mean (survival fraction) [3, 20]: 0.813
parasitemia% ([4]; 5.68 mg/kg): 73.4143% and 71.7174% and 72.6074% and 72.7168% and 72.6183%
parasitemia% ([4]; 11.368 mg/kg): 41.4175% and 45.3752% and 36.8615% and 43.5062% and 35.724%
parasitemia% ([4]; 22.736 mg/kg): 2.697% and 7.338% and 4.202% and 2.082% and 5.536%
half-life ([5]; 100 mg/kg, t1/2, rat plasma, ART after gavage of pure ART (PU) 100 mg/kg, n = 6): 1.1 ± 0.335 h
half-life ([5]; 100 mg/kg, t1/2z, pure artemisinin, rat plasma, DAS 2.0, Mean of 6 rats): 1.1 h
half-life ([5]; 352 mg/kg, t1/2, rat plasma, component after gavage of nACTs 352 mg/kg, n = 6): 1.76 ± 0.938 h
Cz(尾点回归值) ([5]; pure artemisinin, rat plasma, DAS 2.0, individual rats No1-No6): 14.237 mg/L
AUC(0-inf) ([6]; 100 mg/kg): 418 ± 133 ng·h/mL
AUC(0-t) ([6]; 100 mg/kg): 386 ± 128 ng·h/mL
MRT last ([6]; 100 mg/kg): 1.18 ± 0.255 h
MRT inf ([6]; 100 mg/kg): 1.67 ± 0.333 h
AUC(0-inf) ([6]; 352 mg/kg): 816 ± 383 ng·h/mL
AUC(0-t) ([6]; 352 mg/kg): 763 ± 345 ng·h/mL
Cmax ([6]; 352 mg/kg, Cmax): 513 ± 186 ng/mL
MRT last ([6]; 352 mg/kg): 1.71 ± 0.513 h
MRT inf ([6]; 352 mg/kg): 2.54 ± 0.785 h
Tmax ([6]; 352 mg/kg, Tmax): 0.388 ± 0.328 h
parasitemia% ([7]; 5.68 mg/kg): 70.2912% and 67.0337% and 68.4147% and 69.5326% and 69.0526%
parasitemia% ([7]; 11.368 mg/kg): 34.1852% and 49.4174% and 42.0754% and 41.1875% and 34.5379%
parasitemia% ([7]; 22.736 mg/kg): 1.979% and 6.804% and 2.98% and 0.248% and 3.003%
